According to patent US11224585B2, “Compositions containing omega-3 oil and uses thereof” (Maine Natural Health Company, Inc., priority 2010, dated 2022):

Key:
[1] = Absorption rate of ibuprofen in mice (tail vein samples); type: in vivo; conditions: mouse, blood (tail vein samples), 25 mg/kg
Description: Additional experiments to test the absorption rate of the different omega-3 oil-containing pharmaceutical compositions described herein was illustrated in a mouse model.

[2] = system: stomach lesions in fasted mice; conditions: 10 mg/kg ketoprofen, one hour after administration, n = 8
[3] = system: carrageenin-induced ear swelling mouse model; assay: Carrageenin-induced ear swelling mouse model of inflammation; conditions: mice, ketoprofen 2 mg/kg, ear volume vs control mice, eight mice per treatment

Row | Structure (SMILES) | Cmax [1] [ng/mL] | Average Lesions Score/Stomach [2] | % of Inhibition of Inflammation [3] [%]
1 | CC(C)Cc1ccc(C(C)C(=O)O)cc1 (stereo not drawn) [Ibuprofen in saline, ibuprofen] | 10000 | – | –
2 | CC(C(=O)O)c1cccc(C(=O)c2ccccc2)c1 (stereo not drawn) [Ketoprofen in Saline, ketoprofen] | – | 33 | 45
